Reference: a flash point compilation (Sun et al. 2020)

SMILES	flash point [°C]
C#CCC1=C(C)C(OC(=O)[C@H]2[C@H](C=C(C)C)C2(C)C)CC1=O (stereo partly drawn)	139.00
O=C([O-])CN(CCO)CCN(CC(=O)[O-])CC(=O)[O-].[Na+].[Na+].[Na+]	100.00
O=c1oc2ccccc2c(O)c1C(CC(O)c1ccc(-c2ccc(Br)cc2)cc1)c1ccccc1 (stereo not drawn)	218.00
C#CCN1CC(=O)N(COC(=O)C2C(C=C(C)C)C2(C)C)C1=O (stereo not drawn)	110.00
CC(C)(C)C(=O)C(Oc1ccc(Cl)cc1)n1cncn1 (stereo not drawn)	72.00
CC(C)C1=CC2=CC[C@@H]3[C@](C)(CCC[C@@]3(C)C(=O)O)[C@H]2CC1	187.00
CC(C)CCCCCCCOP(=S)([S-])OCCCCCCCC(C)C.CC(C)CCCCCCCOP(=S)([S-])OCCCCCCCC(C)C.[Zn+2]	280.00
CC(C)CCCCCOP(=S)([S-])OCCCCCC(C)C.CC(C)CCCCCOP(=S)([S-])OCCCCCC(C)C.[Zn+2]	160.00
CC(C)N(C(=O)SCC(Cl)=C(Cl)Cl)C(C)C	90.00
CC(C)N(C(=O)SCC(Cl)=CCl)C(C)C	96.00
CC1(C)C(C(=O)OC(C#N)c2cccc(Oc3ccccc3)c2)C1C(Br)C(Br)(Br)Br (stereo not drawn)	26.00
COP(=S)(OC)Oc1ccc(SC)c(C)c1	170.00
Cc1cc(C)cc(N)c1.Cc1ccc(C)c(N)c1.Cc1ccc(N)c(C)c1.Cc1ccc(N)cc1C.Cc1cccc(C)c1N.Cc1cccc(N)c1C	97.00
COc1nc(C)nc(NC(=O)NS(=O)(=O)c2ccccc2CCC(F)(F)F)n1	100.00
CCC(CC)C(=O)OCCOCCOCCOC(=O)C(CC)CC	196.00
CC(C)CC(C)C(C)C.CCCC(C)CC(C)C.CCCCC(C)C(C)C (stereo not drawn)	24.00
CCCCC(CC)CN1C(=O)C2C3C=CC(C3)C2C1=O (stereo not drawn)	177.00
CCCCCCC(O)C/C=C\CCCCCCCC(=O)OCC(COC(=O)CCCCCCC/C=C\CC(O)CCCCCC)OC(=O)CCCCCCC/C=C\CC(O)CCCCCC (stereo not drawn)	229.00
CCCN(CCCl)c1c([N+](=O)[O-])cc(C(F)(F)F)cc1[N+](=O)[O-]	30.00
CCOC(=O)C1CC(=O)C(=C(O)C2CC2)C(=O)C1 (stereo not drawn)	133.00
CCOP(=O)(OCC)SCCSCC.CCOP(=S)(OCC)OCCSCC	45.00
CCOP(=S)(Oc1ccc([N+](=O)[O-])cc1)c1ccccc1 (stereo not drawn)	30.00
CCOP(=S)(OCC)SCn1c(=O)oc2cc(Cl)ccc21	100.00
CCOP(=S)(OCC)SCSCC	160.00

SMILES	flash point [°C]
CCOP(=S)(OCC)SCSP(=S)(OCC)OCC	176.00
C#CCOc1cccc(-c2cc(C(F)(F)F)nc(S(=O)CC)n2)c1 (stereo not drawn)	240.00
CN(C)CCCC1(c2ccccc2)C(=O)N(N(C)Cc2ccccc2F)c2ccccc21 (stereo not drawn)	193.00
COc1nn(CSP(=S)(OC)OC)c(=O)s1	100.00
C[C@@H]1[C@@H](c2ccc(Cl)cc2)SC(=O)N1C(=O)NC1CCCCC1	100.00
C[Si]1(C)O[Si](C)(C)O[Si](C)(C)O[Si](C)(C)O1	55.00
C[Si]1(C)O[Si](C)(C)O[Si](C)(C)O[Si](C)(C)O[Si](C)(C)O[Si](C)(C)O1	91.00
c1ccc(-c2ccccc2)cc1 [1,1'-biphenyl]	113.00
CC1=Nc2ccc3ccccc3c2C1(C)C [1,1,2-trimethylbenzo[e]indole]	182.00
CC(Cl)(Cl)[N+](=O)[O-] [1,1-dichloro-1-nitroethane]	76.00
CC(C)OC(C)C(Cl)Cl (stereo not drawn) [1,1-dichloro-2-propan-2-yloxypropane]	85.00
CC(Cl)Cl [1,1-dichloroethane]	-6.00
C=C(Cl)Cl [1,1-dichloroethene]	-10.00
CCOC(C)OCC [1,1-diethoxyethane]	-21.00
CC(C)c1ccc(NC(=O)N(C)C)cc1 [1,1-dimethyl-3-(4-propan-2-ylphenyl)urea]	100.00
CN(C)N [1,1-dimethylhydrazine]	-15.00
Clc1c(Cl)c(Cl)c(Cl)c(Cl)c1Cl [1,2,3,4,5,6-hexachlorobenzene]	242.00
O=[N+]([O-])c1c(Cl)c(Cl)c(Cl)c(Cl)c1Cl [1,2,3,4,5-pentachloro-6-nitrobenzene]	127.00
c1ccc2c(c1)CCCC2 [1,2,3,4-tetrahydronaphthalene]	80.00
Clc1ccc(-c2ccc(Cl)c(Cl)c2Cl)c(Cl)c1Cl [1,2,3-trichloro-4-(2,3,4-trichlorophenyl)benzene]	141.00
ClC=C(Cl)CCl [1,2,3-trichloroprop-1-ene]	85.00
ClCC(Cl)CCl [1,2,3-trichloropropane]	82.00
CCc1cccc(CC)c1CC [1,2,3-triethylbenzene]	83.00
Clc1cc(Cl)c(Cl)cc1Cl [1,2,4,5-tetrachlorobenzene]	155.00

SMILES	flash point [°C]
CC(C)c1ccccc1C(C)C [1,2-di(propan-2-yl)benzene]	77.00
O=[N+]([O-])c1cccc(Cl)c1Cl [1,2-dichloro-3-nitrobenzene]	124.00
O=[N+]([O-])c1ccc(Cl)c(Cl)c1 [1,2-dichloro-4-nitrobenzene]	124.00
Clc1ccccc1Cl [1,2-dichlorobenzene]	66.00
ClCCCl [1,2-dichloroethane]	13.00
CC(=O)OC(Cl)CCl (stereo not drawn) [1,2-dichloroethyl acetate]	153.00
CC(Cl)CCl.ClC=CCCl (stereo not drawn) [1,2-dichloropropane;(E)-1,3-dichloroprop-1-ene]	17.00
CC(Cl)CCl (stereo not drawn) [1,2-dichloropropane]	16.00
CCOCCOCC [1,2-diethoxyethane]	35.00
O=C=Nc1ccc2ccccc2c1N=C=O [1,2-diisocyanatonaphthalene]	192.00
Cc1cccc([N+](=O)[O-])c1C [1,2-dimethyl-3-nitrobenzene]	107.00
c1ccc(-c2ccccc2-c2ccccc2)cc1 [1,2-diphenylbenzene]	163.00
Cc1ccccc1C [1,2-xylene]	17.00
CC12CCC(CC1)C(C)(C)O2 [1,3,3-trimethyl-2-oxabicyclo[2.2.2]octane]	49.00
ClC1=C(Cl)C2(Cl)C3C(Cl)C(Cl)CC3C1(Cl)C2(Cl)Cl (stereo not drawn) [1,3,4,7,8,9,10,10-octachlorotricyclo[5.2.1.02,6]dec-8-ene]	107.00
C1N2CN3CN1CN(C2)C3 [1,3,5,7-tetrazatricyclo[3.3.1.13,7]decane]	250.00
C1OCOCO1 [1,3,5-trioxane]	45.00
Cc1c(Cl)cccc1Cl [1,3-dichloro-2-methylbenzene]	82.00
CC1(C)C(=O)N(Cl)C(=O)N1Cl [1,3-dichloro-5,5-dimethylimidazolidine-2,4-dione]	174.00
Clc1cccc(-c2cc(Cl)cc(Cl)c2)c1 [1,3-dichloro-5-(3-chlorophenyl)benzene]	141.00
Clc1cccc(Cl)c1 [1,3-dichlorobenzene]	63.00
OC(CCl)CCl [1,3-dichloropropan-2-ol]	74.00
Cc1c(N=C=O)cccc1N=C=O [1,3-diisocyanato-2-methylbenzene]	132.00
CNC(=O)NC [1,3-dimethylurea]	154.00

SMILES	flash point [°C]
C1COCO1 [1,3-dioxolane]	2.00
Cc1cccc(C)c1 [1,3-xylene]	29.00
Clc1ccc(Cl)cc1 [1,4-dichlorobenzene]	66.00
CCc1ccc(CC)cc1 [1,4-diethylbenzene]	56.00
COc1ccc(OC)cc1 [1,4-dimethoxybenzene]	88.00
O=C=Nc1cccc2c(N=C=O)cccc12 [1,5-diisocyanatonaphthalene]	155.00
ClCCCCCCCl [1,6-dichlorohexane]	74.00
OOC1(OOC2(O)CCCCC2)CCCCC1 [1-(1-hydroperoxycyclohexyl)peroxycyclohexan-1-ol]	157.00
CCCCOCCOCCCC [1-(2-butoxyethoxy)butane]	85.00
CC1CCC(C(C)(C)OO)CC1 (stereo not drawn) [1-(2-hydroperoxypropan-2-yl)-4-methylcyclohexane]	53.00
CC(O)COCC(C)O (stereo not drawn) [1-(2-hydroxypropoxy)propan-2-ol]	138.00
CCC(O)OCCCOC (stereo not drawn) [1-(3-methoxypropoxy)propan-1-ol]	74.00
Cc1ccccc1CBr [1-(bromomethyl)-2-methylbenzene]	82.00
Cc1cccc(CBr)c1 [1-(bromomethyl)-3-methylbenzene]	82.00
C=CCSSCCC [1-(prop-2-enyldisulfanyl)propane]	56.00
CCCSSCCC [1-(propyldisulfanyl)propane]	66.00
CC(CCN(C)C)N(C)C (stereo not drawn) [1-N,1-N,3-N,3-N-tetramethylbutane-1,3-diamine]	46.00
CCC(C)Nc1ccc(NC(C)CC)cc1 (stereo not drawn) [1-N,4-N-di(butan-2-yl)benzene-1,4-diamine]	141.00
c1ccc(Nc2ccc(Nc3ccccc3)cc2)cc1 [1-N,4-N-diphenylbenzene-1,4-diamine]	204.00
CC(C)Nc1ccc(Nc2ccccc2)cc1 [1-N-phenyl-4-N-propan-2-ylbenzene-1,4-diamine]	151.00
c1ccc2occc2c1 [1-benzofuran]	56.00
